Data on eleven compounds can be found in publication PMC10988555, “Exploiting Co(III)-Cyclopentadienyl Complexes To Develop Anticancer Agents” (Inorganic Chemistry, 2024).

Data set [1] relates to A2780 (human ovarian carcinoma) cell line. Description: Antiproliferative activity, MTS assay, A2780. The class given is cell-based. The settings on record: for IC50: 48 h exposure, MTS assay; for Selectivity index (SI) of ligands, A2780: Table S3, values with * calculated taking fibroblast IC50 as 100 µM (minimal value). As to the method:
(§1) Human colorectal carcinoma cell line (HCT116), human breast cancer cell lines (MDA-MB-231 and MCF-7), and normal human primary dermal fibroblasts neonatal (PCS-201-010) cell line were grown in DMEM (Dulbecco’s modified Eagle’s medium) (Invitrogen Corp., Grand Island, NY, USA) supplemented with 10% (v/v) fetal bovine serum and 1% (v/v) antibiotic/antimycotic solution (Invitrogen Corp.). The human ovarian carcinoma (A2780) cell line was cultivated using RPMI (Roswell Park Memorial Institute) medium supplemented as in DMEM medium. The supplemented medium is named a complete medium. Cells were grown in an incubator with a humidified atmosphere at 5% (v/v) CO2 and 37 °C. All cell lines were purchased from ATCC (ATCC, American Type Culture Collection).
(§2) The evaluation of the cytotoxic potential of complexes 1–4 was obtained through in vitro measurements of the antiproliferative activity of these complexes. Cells were plated in 96-well plates at 7.5 × 10^4 cells/mL and incubated at 37 °C with 5% (v/v) CO2. After 24 h, the culture medium was replaced with fresh medium (100 μL) containing 0.1–50 μM of the different complexes and incubated for 48 h in tumor cell lines or containing 0.1–100 μM of the different complexes and incubated for 48 h in fibroblasts. […] The fibroblast cell line was used as a control of the cytotoxicity of the complexes for healthy cells. Cell viability was evaluated using Cell Titer 96 Aqueous Non-Radioactive Cell Proliferation Assay (Promega, Madison, WI, USA) using 3-(4,5-dimethylthiazol-2-yl)-5-(3-carboxymethoxyphenyl)-2-(4-sulfophenyl)-2H-tetrazolium inner salt (MTS), as described previously.[60] In metabolically active cells, enzymes present in the mitochondria catalyze a reaction in which NADPH/NADH is produced. These enzymes reduce the MTS reagent into a brownish product, Formazan, which can be quantified by measuring the absorbance at 490 nm. The quantity of formazan produced is directly proportional to the number of viable cells in the culture. This quantification was executed with a Biorad microplate reader Model 680 (Bio-Rad, Hercules, CA, USA). Half maximal inhibitory concentration (IC50) was calculated using GraphPad Prism 6 (GraphPadSoftware). We have calculated the ratio between the IC50 of fibroblasts and the IC50 of HCT116, A2780, MDA-MB-231, or MCF-7 cell lines for complexes 1–4 that was named herein as the Selectivity index (SI). To ensure the solubility of the complexes in all biological assays, complex solutions were freshly prepared and well solubilized before addition to the cells.

For data set [2], the system named is HCT116 (human colorectal carcinoma) cell line. Description: Antiproliferative activity, MTS assay, HCT116. To be noted: for IC50: 48 h exposure, MTS assay; for Selectivity index (SI) of ligands, HCT116: Table S3, values with * calculated taking fibroblast IC50 as 50 µM (minimal value). It counts as cell-based. As for the experimental part:
as §1, §2

In data set [3] the test system is MDA-MB-231 (human breast cancer) cell line. The experiment in a line: Antiproliferative activity, MTS assay, MDA-MB-231. The class given is cell-based. To be noted: 48 h exposure. As to the method:
as §1, §2
(In general: Tetrazolium dyes change colour on reduction, which living cells bring about.)

The subject of data set [4] is MCF-7 (human breast cancer) cell line. The experiment in a line: Antiproliferative activity, MTS assay, MCF-7. The class given is cell-based. To be noted: 48 h exposure, MTS assay. As for the experimental part: as §1, §2
Data set [5] relates to normal human primary dermal fibroblasts. Description: Antiproliferative activity, MTS assay, healthy fibroblasts. The class given is cell-based. To be noted: 48 h exposure, healthy human cells. As for the experimental part: as §1, §2
Data set [6] in a line: Octanol-water partition coefficient, shake-flask method. The class given is physicochemical. The settings on record: room temperature. As for the experimental part:
The lipophilicity of the CoCp complexes was estimated by the shake-flask method.[54] Before the assays, n-octanol was vigorously mixed with distilled water for 24 h at room temperature to promote solvent saturation of both phases. After separating the phases, the complexes were dissolved in the n-octanol phase to obtain solutions 1.0 × 10^–5 to 2.5 × 10^–4 M. Then, each solution was equilibrated with water for 4 h in a mechanical shaker, at a phase ratio of 2 mL n-octanol:2 mL water. Afterward, the aqueous and octanol layers were carefully separated by centrifugation (5000 rpm, 10 min), and the UV–vis absorption spectra of the complexes were recorded in the n-octanol phase. For each sample, the concentration was determined by using a calibration curve in n-octanol. All experiments were performed in triplicate for each complex, being the averages used for calculation purposes. Finally, the values of the partition coefficients were calculated by resorting to the following eq (eq 1): [drawing 1] 1 where logPoct/water represents the octanol–water partition coefficient, [complex]oct represents the concentration of the complex in the n-octanol phase, and [complex]water represents the concentration of the complex in the water phase.

The test system of data set [7] is A2780 cell line. Description: Autophagy induction, flow cytometry. The class given is cell-based, human. The settings on record: A2780, 48 h; complexes at IC50, DOX 0.4 μM, cisplatin 5 μM; rapamycin 500 nM for 15 h. As for the experimental part: The autophagy induced by complexes 2–4 was evaluated using the Autophagy Assay Kit (ab139484, Abcam, Cambridge, United Kingdom) according to the manufacturer’s instructions. For this, the A2780 cell line was seeded at a density of 2 × 10^5 cells/well in 6-well plates and incubated for 24 h at the conditions mentioned before. […] The positive control Rapamycin at 500 nM was incubated for only 15 h. After 48 h incubation, the cells were washed with PBS 1×, detached with TE, and treated with the Autophagy detection kit (Abcam, Cambridge, UK) according to the manufacturer’s instructions. The evaluation of autophagy induction was done through the Attune acoustic focusing flow cytometer (ThermoFisher Scientific) and respective software.
(In general: Flow cytometry measures light scatter and fluorescence of single cells or particles in a stream.)

Data set [8] relates to A2780 cells. The experiment in a line: Cell cycle progression (PI flow cytometry, double thymidine block). The class given is cell-based, human. To be noted: A2780, 24 h; complexes at IC50, DOX 0.4 μM, cisplatin 5 μM. As for the experimental part:
The interference of the copper complexes 2–4 in the cell cycle progression was evaluated in A2780 cells, seeded in 6-weel plates, with a density of 2 × 10^5 cells/well, and incubated for 8 h at the same conditions as described above. After that incubation time, the cells were synchronized in early S-phase with a 2 mM thymidine solution (Sigma, St. Louis, USA) for a 16 h period. Media with thymidine was replaced by fresh media and, after 8 h, another 2 mM thymidine solution was added to the wells (double thymidine block) and incubated for 16 h. […] Cells were incubated for 9, 18, or 24 h, and, at each hour, the cells were treated with TE and centrifuges at 650 × g for 5 min at 4 °C. The pellet was resuspended in PBS 1× and centrifuged at 3000 × g for 5 min at 4 °C. Later, the pellet was resuspended in 100 μL of PBS 1×, and 1 mL of a solution of 80% (v/v) ethanol was gently added to the cells. Cells were stored at 4 °C for at least 12 h and then centrifuged for 10 min at 7500 × g at 4 °C, treated with 250 μL of 50 μg/mL RNase A, and incubated for 30 min at 37 °C. After incubation, 100 μL of PI (25 μg/mL) was added to the cells as well as 650 μL of PBS 1×. The DNA content was evaluated on an Attune Acoustic Focusing Flow Cytometer (ThermoFisher Scientific) and results were analyzed by the respective software.

Data set [9] deals with DNA of A2780 cells. Description: Single-cell gel electrophoresis (comet assay). The settings on record: A2780; complexes 10× IC50 for 12 h; H2O2 0.05% for 30 min at RT. It counts as cell-based, human. As for the experimental part: A2780 cells were seeded in 6-well plates with a density of 1 × 10^6 cells/well and incubated for 24 h in an incubator with a humidified atmosphere at 5% (v/v) CO2 and 37 °C. […] The complexes and DMSO were incubated at 37 °C for 12 h and H2O2 for 30 min at RT. Cells were harvested with a cell scraper and solutions with 1 × 10^5 cells/mL in PBS were prepared. It was withdrawn 10 μL from the solutions and added to 90 μL of 1.5% (w/v) low melting point agarose in 1× PBS and dropped on the slides prepared previously with a coating of 1.5% (w/v) agarose (normal melting point agarose) in 1× TAE buffer. After drying at 4 °C for 15 min, the slides were dipped into lysis solution (450 mM NaCl, 3.72% EDTA, 5 mM Tris; to which 10% (v/v) DMSO and 1% (v/v) Triton-X were added just before use) for 1 h at 4 °C, followed by their being dipped for 40 min into cold electrophoresis solution (1 mM EDTA, 300 mM NaOH, pH 13). Electrophoresis was performed at 4 °C for 30 min at 25 V using a Sub-Cell model 96 apparatus (Bio-Rad). Afterward, slides were placed in 0.1 M Tris–HCl buffer (pH 7.5) at 4 °C for 15 min for neutralization, followed by 15 min in methanol at 4 °C and drying at 37 °C. For visualization of comets, slides were hydrated with distilled water at 4 °C for 30 min, stained with 20 μL of GelRed working solution (3×), and covered with new coverslips. The slides were observed under a Ti–U Eclipse inverted microscope (Nikon Instruments, Japan) and analyzed by CometScore version 2.1 (TriTek). About 100 cells per sample were analyzed. The percentage of DNA in the tail was used as a measure of the total DNA strand breakage.

Usually IC50 stands for the midpoint of a concentration-inhibition curve. Low readings indicate higher potency, high ones lower potency. In the case of `O=S(=O)([O-])C(F)(F)F.O=S(=O)([O-])C(F)(F)F.[Co+3].c1cc[cH-]c1.c1ccc(-c2ccccn2)nc1.c1ccc(P(c2ccccc2)c2ccccc2)cc1` [Complex 1, [Co(η^5-C5H5)(PPh3)(bipy)][(CF3SO3)2]], the IC50 in data set [1] was 18.1 ± 0.1 µM; in [2] it was greater than 50 µM; in [3], greater than 50 µM; in data set [4] it was greater than 50 µM; in [5] it was greater than 100 µM. For the same compound, the “logP (n-octanol/water partition coefficient)” value in [6] is given as −0.67 ± 0.02.

Turning to `Cc1ccnc(-c2cc(C)ccn2)c1` [Me2bipy, 4,4′-dimethyl-2,2′-bipyridine], the IC50 was 17.6 ± 0.1 µM in [1] (Homo sapiens, A2780); 12.4 ± 0.2 µM in data set [2] (Homo sapiens, HCT-116); greater than 50 µM in data set [5] (Fibroblast). In data set [1], the “Selectivity index (SI) of ligands, A2780” value is listed as 2.8. Also, in data set [1] (free ligand, A2780 and HCT116), the “fold less cytotoxic than Phen and NH2phen ligands” value is reported as “about 10 fold”. Besides, the “Selectivity index (SI) of ligands, HCT116” value (“Selectivity index … HCT116” below) in data set [2] is 4.0.

For the compound `Nc1cc2cccnc2c2ncccc12` [NH2phen, 5-amino-1,10′-phenanthroline], the 50% inhibitory concentration (IC50) in data set [1] (Homo sapiens, A2780) was determined as 1.9 ± 0.08 µM; in [2] (Homo sapiens, HCT-116), 2.3 ± 0.06 µM; in data set [5] (Fibroblast), 29.9 ± 0.4 µM. In addition, the “Selectivity index (SI) of ligands, A2780” value in [1] is reported as 15.2. Besides, in data set [2], the “Selectivity index … HCT116” value was 13.1.

Turning to `c1ccc(P(c2ccccc2)c2ccccc2)cc1` [PPh3, triphenylphosphane], the IC50 in data set [1] (Homo sapiens, A2780) was 37.8 ± 0.1 µM; in data set [2] (Homo sapiens, HCT-116), greater than 50 µM; in data set [5] (Fibroblast) it was greater than 50 µM. In addition, in [1], the “Selectivity index (SI) of ligands, A2780” value was 1.3.

For the compound `c1cnc2c(c1)ccc1cccnc12` [Phen, 1,10′-phenanthroline], the IC50 in data set [1] (Homo sapiens, A2780) stood at 2.4 ± 0.05 µM; in data set [2] (Homo sapiens, HCT-116), 4.1 ± 0.04 µM; in data set [5] (Fibroblast), 50.1 ± 0.1 µM. Moreover, the “Selectivity index (SI) of ligands, A2780” value in [1] is on record as 20.9. Moreover, the “Selectivity index … HCT116” value in data set [2] is 12.4.

In the case of `O=[C]=[Co]([I])([I])[CH]1C=CC=C1` [[CoCp(CO)I2]], the IC50 in data set [1] was 29.9 ± 0.1 µM; in data set [2] it was greater than 50 µM; in data set [5], greater than 50 µM. Also, the “Selectivity index (SI) of ligands, A2780” value in data set [1] is 1.7.

With `c1ccc(-c2ccccn2)nc1` [bipy, 2,2′-bipyridine], the IC50 in data set [1] (Homo sapiens, A2780) was greater than 50 µM; in data set [2] (Homo sapiens, HCT-116), greater than 50 µM; in [5] (Fibroblast), greater than 50 µM.

As for `N.N.[Cl][Pt][Cl]` [cisplatin, reference compound], the values for the IC50 in data set [1] and in [2] were 1.9 ± 0.2 µM and 15.6 ± 5.3 µM, respectively. This compound came in with a levels of autophagy in data set [7] of 96.7%. Also, the “% of cells in the G2/M phase” value in data set [8] was 31.3%.

For the compound `COc1cccc2c1C(=O)c1c(O)c3c(c(O)c1C2=O)C[C@@](O)(C(=O)CO)C[C@@H]3O[C@H]1C[C@H](N)[C@H](O)[C@H](C)O1` [doxorubicin, reference compound], the IC50 in data set [1] (Homo sapiens, A2780) was 0.1 ± 0.1 µM; in [2] (Homo sapiens, HCT-116), 0.5 ± 0.1 µM. Moreover, the levels of autophagy in data set [7] worked out at 84.1%. For the same compound, the “% of cells in the G2/M phase” value in data set [8] is on record as 77.9%.

For the compound `OO` [hydrogen peroxide, reference compound], in data set [9], the “% of DNA in the tail” value is 73%.

The compound `CO[C@H]1C[C@@H]2CC[C@@H](C)[C@@](O)(O2)C(=O)C(=O)N2CCCC[C@H]2C(=O)O[C@H]([C@H](C)C[C@@H]2CC[C@@H](O)[C@H](OC)C2)CC(=O)[C@H](C)/C=C(\C)[C@@H](O)[C@@H](OC)C(=O)[C@H](C)C[C@H](C)/C=C/C=C/C=C/1C` [rapamycin, Rapamycin, reference compound] gave a levels of autophagy in [7] of 72.93%.
